Assay results reported in ChEMBL document CHEMBL3526086, “Identification of the oxidative and conjugative enzymes involved in the biotransformation of brivanib” (Drug Metab Dispos, 2012).

Tests used:
Type in all cases: ADME
Cytochrome P450 2C8 [1] = molecular target: T1, Cytochrome P450 2C8 (Homo sapiens, UniProt P10632); test: Drug metabolism in human liver microsomes assessed as 3 uM montekulast-mediated inhibition of CYP2C8-mediated (R)-1-(4-(4-fluoro-2-(hydroxymethyl)-1H-indol-5-yloxy)-5-methylpyrrolo[1,2-f][1,2,4]triazin-6-yloxy)propan-2-ol formation at 2 and 20 uM for 30 mins by LC/MS analysis; conditions: 0.5 h
T1 sequence (P10632 whole entry): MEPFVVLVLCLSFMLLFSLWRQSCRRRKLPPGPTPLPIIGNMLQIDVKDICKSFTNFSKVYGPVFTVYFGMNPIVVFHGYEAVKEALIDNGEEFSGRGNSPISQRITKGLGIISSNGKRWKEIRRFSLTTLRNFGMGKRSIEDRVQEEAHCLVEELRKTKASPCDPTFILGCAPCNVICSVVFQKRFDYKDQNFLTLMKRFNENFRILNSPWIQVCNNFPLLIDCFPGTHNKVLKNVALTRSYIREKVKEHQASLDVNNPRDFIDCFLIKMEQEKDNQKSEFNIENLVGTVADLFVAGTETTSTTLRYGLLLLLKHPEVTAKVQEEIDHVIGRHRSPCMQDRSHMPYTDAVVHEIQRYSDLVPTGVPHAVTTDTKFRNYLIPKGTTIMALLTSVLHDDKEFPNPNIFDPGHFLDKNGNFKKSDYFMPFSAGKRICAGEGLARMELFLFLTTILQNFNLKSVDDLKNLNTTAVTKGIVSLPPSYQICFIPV

Cytochrome P450 2C9 [2] = molecular target: T2, Cytochrome P450 2C9 (Homo sapiens, UniProt P11712); test: Drug metabolism in human liver microsomes assessed as 10 uM sulfaphenazole-mediated inhibition of CYP2C9-mediated (R)-1-(4-(4-fluoro-2-(hydroxymethyl)-1H-indol-5-yloxy)-5-methylpyrrolo[1,2-f][1,2,4]triazin-6-yloxy)propan-2-ol formation at 2 and 20 uM for 30 mins by LC/MS analysis; conditions: 0.5 h
T2 sequence (P11712 whole entry): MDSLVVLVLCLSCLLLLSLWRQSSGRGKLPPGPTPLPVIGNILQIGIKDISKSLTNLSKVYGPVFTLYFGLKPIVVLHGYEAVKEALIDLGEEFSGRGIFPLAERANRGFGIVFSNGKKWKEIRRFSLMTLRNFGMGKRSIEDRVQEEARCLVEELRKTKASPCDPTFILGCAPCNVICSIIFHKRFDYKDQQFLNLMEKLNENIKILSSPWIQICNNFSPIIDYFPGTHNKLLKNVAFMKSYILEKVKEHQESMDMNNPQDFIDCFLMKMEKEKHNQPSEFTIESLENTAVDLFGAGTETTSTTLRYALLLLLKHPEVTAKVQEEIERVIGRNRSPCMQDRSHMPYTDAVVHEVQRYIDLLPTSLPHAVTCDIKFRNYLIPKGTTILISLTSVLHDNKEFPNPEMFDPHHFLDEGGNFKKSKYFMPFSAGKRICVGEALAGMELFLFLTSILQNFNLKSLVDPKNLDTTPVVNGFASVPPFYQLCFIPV

Cytochrome P450 1B1 = Cytochrome P450 1B1 (Homo sapiens, UniProt Q16678); test: Drug metabolism assessed as human CYP1B1-mediated (R)-1-(4-(4-fluoro-2-(hydroxymethyl)-1H-indol-5-yloxy)-5-methylpyrrolo[1,2-f][1,2,4]triazin-6-yloxy)propan-2-ol formation at 2 and 20 uM for 20 mins by LC/MS analysis in presence of NADPH; conditions: recombinant enzyme
Sequence of Cytochrome P450 1B1 (Q16678 whole entry): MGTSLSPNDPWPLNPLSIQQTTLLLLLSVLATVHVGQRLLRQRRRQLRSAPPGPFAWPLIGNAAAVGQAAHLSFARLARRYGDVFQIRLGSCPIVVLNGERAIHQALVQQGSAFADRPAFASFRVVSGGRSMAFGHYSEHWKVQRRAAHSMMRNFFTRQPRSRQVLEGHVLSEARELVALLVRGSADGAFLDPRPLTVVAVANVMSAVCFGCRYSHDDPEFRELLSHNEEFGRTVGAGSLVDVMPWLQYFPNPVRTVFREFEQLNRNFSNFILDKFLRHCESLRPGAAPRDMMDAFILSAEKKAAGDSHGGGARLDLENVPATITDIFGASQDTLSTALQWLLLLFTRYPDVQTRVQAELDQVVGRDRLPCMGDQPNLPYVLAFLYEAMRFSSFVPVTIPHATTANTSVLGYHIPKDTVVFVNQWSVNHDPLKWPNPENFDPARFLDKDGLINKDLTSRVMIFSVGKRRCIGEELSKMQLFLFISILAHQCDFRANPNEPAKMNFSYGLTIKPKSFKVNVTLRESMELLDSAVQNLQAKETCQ

Cytochrome P450 3A4 = Cytochrome P450 3A4 (Homo sapiens, UniProt P08684); test: Drug metabolism assessed as human CYP3A4-mediated (R)-1-(4-(4-fluoro-2-(hydroxymethyl)-1H-indol-5-yloxy)-5-methylpyrrolo[1,2-f][1,2,4]triazin-6-yloxy)propan-2-ol formation at 2 and 20 uM for 20 mins by LC/MS analysis in presence of NADPH; conditions: recombinant enzyme
Sequence of Cytochrome P450 3A4 (P08684 whole entry): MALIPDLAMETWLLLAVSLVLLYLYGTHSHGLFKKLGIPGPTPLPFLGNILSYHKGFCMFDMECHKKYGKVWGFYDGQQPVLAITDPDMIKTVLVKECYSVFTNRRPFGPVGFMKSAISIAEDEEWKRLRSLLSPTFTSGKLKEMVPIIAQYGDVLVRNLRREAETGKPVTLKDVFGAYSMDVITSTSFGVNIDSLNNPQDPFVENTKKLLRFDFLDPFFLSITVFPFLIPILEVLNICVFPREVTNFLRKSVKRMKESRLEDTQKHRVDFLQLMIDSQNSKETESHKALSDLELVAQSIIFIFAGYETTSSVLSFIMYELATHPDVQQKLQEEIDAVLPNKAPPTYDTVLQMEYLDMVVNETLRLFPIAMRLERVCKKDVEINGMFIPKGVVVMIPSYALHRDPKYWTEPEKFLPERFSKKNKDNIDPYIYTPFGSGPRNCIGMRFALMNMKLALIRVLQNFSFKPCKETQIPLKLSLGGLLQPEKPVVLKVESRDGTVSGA

Cytochrome P450 3A5 = Cytochrome P450 3A5 (Homo sapiens, UniProt P20815); test: Drug metabolism assessed as human CYP3A5-mediated (R)-1-(4-(4-fluoro-2-(hydroxymethyl)-1H-indol-5-yloxy)-5-methylpyrrolo[1,2-f][1,2,4]triazin-6-yloxy)propan-2-ol formation at 2 and 20 uM for 20 mins by LC/MS analysis in presence of NADPH; conditions: recombinant enzyme
Sequence of Cytochrome P450 3A5 (P20815 whole entry): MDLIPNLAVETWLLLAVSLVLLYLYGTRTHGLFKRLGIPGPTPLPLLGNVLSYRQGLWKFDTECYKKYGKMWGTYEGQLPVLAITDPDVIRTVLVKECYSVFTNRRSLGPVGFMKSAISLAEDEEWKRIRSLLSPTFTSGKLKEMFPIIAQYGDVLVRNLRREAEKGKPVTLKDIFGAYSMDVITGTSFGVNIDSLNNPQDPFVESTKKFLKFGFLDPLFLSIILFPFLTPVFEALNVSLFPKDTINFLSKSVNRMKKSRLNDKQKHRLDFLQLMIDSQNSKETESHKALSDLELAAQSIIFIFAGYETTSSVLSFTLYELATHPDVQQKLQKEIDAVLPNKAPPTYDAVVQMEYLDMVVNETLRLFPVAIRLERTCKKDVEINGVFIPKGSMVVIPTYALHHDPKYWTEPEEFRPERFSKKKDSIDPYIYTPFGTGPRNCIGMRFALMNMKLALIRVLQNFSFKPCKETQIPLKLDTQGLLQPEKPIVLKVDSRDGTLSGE

Cytochrome P450 2C19 [3] = molecular target: T3, Cytochrome P450 2C19 (Homo sapiens, UniProt P33261); test: Drug metabolism assessed as human CYP2C19-mediated (R)-1-(4-(4-fluoro-2-(hydroxymethyl)-1H-indol-5-yloxy)-5-methylpyrrolo[1,2-f][1,2,4]triazin-6-yloxy)propan-2-ol formation at 2 and 20 uM for 20 mins by LC/MS analysis in presence of NADPH; conditions: recombinant enzyme
T3 sequence (P33261 whole entry): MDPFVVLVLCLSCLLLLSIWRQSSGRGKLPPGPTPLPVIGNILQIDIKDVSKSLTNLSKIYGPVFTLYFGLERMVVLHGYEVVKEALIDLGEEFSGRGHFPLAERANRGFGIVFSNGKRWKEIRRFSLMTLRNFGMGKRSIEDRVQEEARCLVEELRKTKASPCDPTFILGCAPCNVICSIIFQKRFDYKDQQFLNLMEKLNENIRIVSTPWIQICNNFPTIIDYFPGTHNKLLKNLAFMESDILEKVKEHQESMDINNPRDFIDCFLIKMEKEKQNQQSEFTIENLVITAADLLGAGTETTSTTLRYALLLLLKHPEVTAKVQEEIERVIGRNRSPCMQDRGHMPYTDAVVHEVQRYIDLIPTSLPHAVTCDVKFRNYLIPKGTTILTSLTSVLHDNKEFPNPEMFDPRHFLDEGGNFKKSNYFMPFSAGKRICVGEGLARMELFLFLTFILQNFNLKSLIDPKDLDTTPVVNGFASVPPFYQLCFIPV

Cytochrome P450 2C8 [4] = molecular target: T1, Cytochrome P450 2C8; test: Drug metabolism assessed as human CYP2C8-mediated (R)-1-(4-(4-fluoro-2-(hydroxymethyl)-1H-indol-5-yloxy)-5-methylpyrrolo[1,2-f][1,2,4]triazin-6-yloxy)propan-2-ol formation at 2 and 20 uM for 20 mins by LC/MS analysis in presence of NADPH; conditions: recombinant enzyme
Sulfotransferase 1A1 = Sulfotransferase 1A1 (Homo sapiens, UniProt P50225); test: Drug metabolism assessed as human SULT1A1-mediated (R)-1-(4-(4-fluoro-2-methyl-1H-indol-5-yloxy)-5-methylpyrrolo[1,2-f][1,2,4]triazin-6-yloxy)propane-2-sulfonic acid formation at 2 and 20 uM for 30 mins by LC/MS analysis in presence of PAPS; conditions: 0.5 h
Sequence of Sulfotransferase 1A1 (P50225 whole entry): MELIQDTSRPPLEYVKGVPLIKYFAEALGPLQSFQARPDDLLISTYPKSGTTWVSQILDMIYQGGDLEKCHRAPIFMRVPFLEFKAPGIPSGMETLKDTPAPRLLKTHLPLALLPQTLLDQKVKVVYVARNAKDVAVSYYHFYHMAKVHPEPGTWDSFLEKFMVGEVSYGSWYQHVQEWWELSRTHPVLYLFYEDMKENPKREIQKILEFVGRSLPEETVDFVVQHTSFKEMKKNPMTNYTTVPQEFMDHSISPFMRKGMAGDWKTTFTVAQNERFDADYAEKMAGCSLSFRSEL

Cytochrome P450 2A6 = molecular target: T4, Cytochrome P450 2A6 (Homo sapiens, UniProt P11509); test: Drug metabolism in human liver microsomes assessed as monoclonal antibody-mediated inhibition of CYP2A6-mediated (R)-1-(4-(4-fluoro-2-(hydroxymethyl)-1H-indol-5-yloxy)-5-methylpyrrolo[1,2-f][1,2,4]triazin-6-yloxy)propan-2-ol formation at 2 and 20 uM for 30 mins by LC/MS analysis; conditions: 0.5 h
T4 sequence (P11509 whole entry): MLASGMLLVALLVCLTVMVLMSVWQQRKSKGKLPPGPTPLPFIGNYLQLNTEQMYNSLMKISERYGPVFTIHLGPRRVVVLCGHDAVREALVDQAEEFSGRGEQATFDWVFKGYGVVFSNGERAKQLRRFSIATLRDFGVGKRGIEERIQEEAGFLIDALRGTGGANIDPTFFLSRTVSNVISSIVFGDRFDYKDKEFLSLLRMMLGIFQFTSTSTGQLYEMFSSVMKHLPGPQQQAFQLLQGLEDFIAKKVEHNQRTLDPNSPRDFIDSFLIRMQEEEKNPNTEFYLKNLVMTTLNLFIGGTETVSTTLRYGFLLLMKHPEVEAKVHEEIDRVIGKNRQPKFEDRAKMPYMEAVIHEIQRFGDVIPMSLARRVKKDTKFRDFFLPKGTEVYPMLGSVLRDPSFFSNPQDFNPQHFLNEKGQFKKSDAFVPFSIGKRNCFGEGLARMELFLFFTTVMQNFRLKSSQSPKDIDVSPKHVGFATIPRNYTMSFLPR

Cytochrome P450 2C9 [5] = molecular target: T2, Cytochrome P450 2C9; test: Drug metabolism in human liver microsomes assessed as monoclonal antibody-mediated inhibition of CYP2C9-mediated (R)-1-(4-(4-fluoro-2-(hydroxymethyl)-1H-indol-5-yloxy)-5-methylpyrrolo[1,2-f][1,2,4]triazin-6-yloxy)propan-2-ol formation at 2 and 20 uM for 30 mins by LC/MS analysis; conditions: 0.5 h
Cytochrome P450 2C19 [6] = molecular target: T3, Cytochrome P450 2C19; test: Drug metabolism in human liver microsomes assessed as monoclonal antibody-mediated inhibition of CYP2C19-mediated (R)-1-(4-(4-fluoro-2-(hydroxymethyl)-1H-indol-5-yloxy)-5-methylpyrrolo[1,2-f][1,2,4]triazin-6-yloxy)propan-2-ol formation at 2 and 20 uM for 30 mins by LC/MS analysis; conditions: 0.5 h
Cytochrome P450 2E1 = Cytochrome P450 2E1 (Homo sapiens, UniProt P05181); test: Drug metabolism in human liver microsomes assessed as monoclonal antibody-mediated inhibition of CYP2E1-mediated (R)-1-(4-(4-fluoro-2-(hydroxymethyl)-1H-indol-5-yloxy)-5-methylpyrrolo[1,2-f][1,2,4]triazin-6-yloxy)propan-2-ol formation at 2 and 20 uM for 30 mins by LC/MS analysis; conditions: 0.5 h
Sequence of Cytochrome P450 2E1 (P05181 whole entry): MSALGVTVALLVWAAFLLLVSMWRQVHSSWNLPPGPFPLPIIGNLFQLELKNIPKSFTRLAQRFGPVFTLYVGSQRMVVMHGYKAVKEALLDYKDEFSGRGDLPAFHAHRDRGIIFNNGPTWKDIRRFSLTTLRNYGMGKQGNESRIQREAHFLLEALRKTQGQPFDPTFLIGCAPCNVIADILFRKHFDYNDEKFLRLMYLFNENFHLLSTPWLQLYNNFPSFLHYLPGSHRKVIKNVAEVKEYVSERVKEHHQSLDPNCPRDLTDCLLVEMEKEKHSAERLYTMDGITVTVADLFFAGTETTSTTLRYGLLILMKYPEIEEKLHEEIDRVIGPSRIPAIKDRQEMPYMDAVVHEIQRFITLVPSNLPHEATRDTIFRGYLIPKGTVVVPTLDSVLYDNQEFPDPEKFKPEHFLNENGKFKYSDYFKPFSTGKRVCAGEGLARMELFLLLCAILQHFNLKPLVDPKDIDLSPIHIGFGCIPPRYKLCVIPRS

Measured: Drug metabolism

Cc1cc2c(F)c(Oc3ncnn4cc(OC[C@@H](C)O)c(C)c34)ccc2[nH]1 [BRIVANIB]
metabolite_detected: Cytochrome P450 2C8 [1] | Cytochrome P450 2C9 [2] | Cytochrome P450 1B1 | Cytochrome P450 3A4 | Cytochrome P450 3A5 | Cytochrome P450 2C19 [3] | Cytochrome P450 2C8 [4] | Sulfotransferase 1A1 | Cytochrome P450 2A6 | Cytochrome P450 2C9 [5] | Cytochrome P450 2C19 [6] | Cytochrome P450 2E1
